From patent US20020049157A1, “Use of proteasome inhibitors for treating cancer, inflammation, autoimmune disease, graft rejection and septic shock” (priority 1998, published 2002)

Columns and labels:
Peripheral blood T cells = assay: Mitogen-stimulated T cell proliferation (3H-thymidine uptake); format: cell-based, human; conditions: for inhibition of subsequent PHA-stimulated proliferation after preincubation and wash: 10 μM LAC; for inhibition of T cell proliferation (3H-thymidine uptake): LAC added at 0 h
Procedure: Lymphocytes were stimulated with various mitogens as indicated, and LAC at different concentrations was added at the beginning of the cultures. The cells were pulsed with 3H-thymidine between 48 h and 64 h. Samples were in triplicates. All the experiments were performed at least three times and similar results were obtained. Representative results are shown.
A: Peripheral blood T cells stimulated with PHA (2 μg/ml).
B: Peripheral blood T cells stimulated with OKT3 (50 ng/ml).
C: Peripheral blood T cells stimulated with anti-CD28 (50 ng/ml) plus ionomycin (1 μg/ml).
A. The rapid effect of LAC Peripheral blood T cells were pretreated with 10 μM LAC in culture medium or in culture medium alone for 3 h or 16 h. The cells were then washed and recultured in the presence of 2 μg/ml PHA for 64 h. The cells were pulsed with ^3H-thymidine for 16 h before they were harvested at 64 h. Samples were in triplicates.
C and D. LAC blocks the S phase entry of the mitogen-stimulated peripheral blood T cells Peripheral blood T cells were stimulated with PHA (2 μ/ml) in the absence or presence of LAC (10 μM, added at 0 h, 16 h, 24 h, or 40 h, as indicated in the bottom of the panels). For the flow cytometry analysis of the cell cycle progress, the cells were harvested at 0 h, 1 6 h, 40 h and 64 h as indicated on the top of the panels (FIG. 6C). For ^3H-thymidine uptake, the triplicated cell samples were pulsed at 48 h and harvested at 64 h (FIG. 6D).
The role of proteasome in T cell activation and proliferation was first examined in PBMC, using the proteasome-specific inhibitor LAC. The PBMC were activated with various stimulants. LAC was added to the cells in the beginning of the culture (0 h) along with the stimulants. ^3H-thymidine uptake between 48 h and 64 h of 64 h cultures was used as a parameter for cell proliferation. […] Rather, it likely affects certain downstream events governing a more general process(es) in lymphocyte activation and proliferation.
We next investigated how fast and how long LAC could exert its effects on the lymphocytes, since this information is necessary to assess the requirement of the proteasome activity for events related to cell activation and proliferation. The cells were then washed and recultured in the presence of PHA. The thymidine uptake was measured 3 days later.
Peripheral blood mononuclear cells (PBMC) and tonsillar T cells were prepared as described before (Luo et al., 1992, Transplantation 53:1071; Luo et al., 1993, Clin. & Exp. Immunol. 94:371). The cells were cultured in RPMI 1640 supplemented with 10% FCS, L-glutamine and antibiotics. ^3H-thymidine uptake was carried out as described previously (Luo et al., 1992, supra; Luo et al., 1993, supra).

Cyclin E-associated CDK = assay: Immunoprecipitation kinase assay, Cyclin E-associated CDK; format: cell-based, human; conditions: PHA-activated T cells; LAC 10 μM added once at 0 h
Procedure: Tonsillar T cells were activated with PHA (2 μg/ml) for a period as indicated in each graph. LAC (10 μM) was added once at 0 h. The cells were harvested at 16 h, 24 h, or 40 h as indicated. An equal amount of lysate protein ([…]) was precipitated with rabbit anti-CDK4, anti-CDK2 or anti-Cyclin E antisera (2.5 μg Ab/sample). The immune complexes were assayed for their kinase activities using histone H1 as a substrate. (A) CDK4 kinase activity. (B) CDK2 kinase activity. (C) Cyclin E-associated CDK activity. The membrane in (C) was subsequently hybridized with anti-Cyclin E (1 μg/ml) followed by ^125I-protein A for the evaluation of the protein level of Cyclin E.
Since at the late G1 phase Cyclin E is the predominant partner of CDK2 (Sherr, 1993, Cell 73:1059), we next examined the Cyclin E-associated CDK activity.
Lymphocytes were lysed by a lysis buffer as used in the immunoblotting (Chen et al., 1996, supra), and cleared lysates were quantitated for their protein content. For immunoprecipitation, 50 μl of rabbit antisera against CDK2, CDK4 or Cyclin E were added to the lysates equivalent to 20 or 40 μg protein depending on the experiment. […] The proteins were then transferred to PVDF membranes and the signals were detected by autoradiography.

[1] = tested on: human peripheral blood mononuclear cells; assay: Aggregate formation of PHA-stimulated PBMC; format: cell-based; conditions: 2 μg/ml PHA plus 10 μM lactacystin; 24 h
From the text: Cell-cell interaction is essential in antigen presentation and in T cell's help to T and B cells. The adhesion molecules are necessary to establish the cell-cell interaction. Blocking the adhesion molecules ICAM-1 and LFA-1 is known to inhibit immune responses and to suppress graft rejection. […] Therefore, inhibition of the proteasome activity will be a useful way to control undesirable immune responses during graft rejection, autoimmune diseases, and inflammation.

nitric oxide synthase = assay: Northern blot of nitric oxide synthase expression in macrophages; format: cell-based, mouse; conditions: 2 μg/ml LPS
Procedure: Nitric oxide synthase expression was measured with Northern blot analysis.
BALB/c mice were injected i.p. with 3 ml of 3% thioglycollate broth. Three days later, peritoneal exudate macrophages of the mice were harvested and washed at 170 g for 10 min at 4° C. […]
The expression of inducible nitric oxide synthase at the mRNA level was analyzed by Northern blot as described in our previous publication (Shan et al., 1994, supra). After an overnight culture, the mouse macrophages were harvested and their total cellular RNA was extracted with the guanidine/CsCl method. The RNA (10 μg/lane) was resolved in 1% agarose-formaldehyde gels and blotted onto nylon membranes. A 562-bp fragment corresponding to the mouse iNOS cDNA (Xie et al., 1992, Science 256:225) was obtained by reverse transcription/PCR using the mouse macrophages total RNA as templates. The fragment was labeled with ^32p with random primers and used as a probe for the Northern blot.

[2] = aqueous solutions of high pH; cited from earlier work

For `CC(=O)N[C@@H](CSC(=O)[C@]1([C@@H](O)C(C)C)NC(=O)[C@H](C)[C@@H]1O)C(=O)O` [LAC, lactacystin], the “inhibition of subsequent PHA-stimulated proliferation after preincubation and wash” value (Peripheral blood T cells; 3 h preincubation) was “significant inhibition”, the “inhibition of subsequent PHA-stimulated proliferation after preincubation and wash” value (Peripheral blood T cells; 16 h preincubation, compared with 3 h) was “more effective” and the “inhibition of T cell proliferation (3H-thymidine uptake)” value (“inhibition … (3H-thymidine uptake)” for short) (Peripheral blood T cells; Ca++ ionophore plus cross-linking of CD28) was “strongly and dose-dependently inhibited”. The “extent of inhibition of T cell proliferation” value (Peripheral blood T cells; LAC at 5 μM, PHA, anti-CD3, anti-CD28 plus ionomycin systems) was “near-to-maximal inhibition”, the “inhibition of 3H-thymidine uptake” value (Peripheral blood T cells; PHA, LAC 10 μM added as late as 40 h, pulsed 48 h, harvested 64 h) was “strongly inhibitory” and the “inhibition … (3H-thymidine uptake)” value (Peripheral blood T cells; crosslinking TCR with anti-CD3) was “strongly and dose-dependently inhibited”. For the same compound, the “inhibition … (3H-thymidine uptake)” value (Peripheral blood T cells; induced by PHA, uptake 48-64 h) was “strongly and dose-dependently inhibited”, the “Cyclin E-associated kinase activity” value (Cyclin E-associated CDK) was “almost completely inhibited” and the aggregate formation [1] was “effectively block the aggregate formation”. The “expression of mRNA for NO synthase” value (nitric oxide synthase) was “decreases the expression of mRNA for NO synthase” and the “stability in aqueous solutions” value [2] was “unstable”.
